Assay results taken from the NIST ThermoML archive (doi:10.1016/j.jct.2015.10.009).
± gives the expanded uncertainty stated by the source.

Experiments:
[1] = Liquid; for vapor or sublimation pressure: Closed cell (Static) method
[2] = refractive index (Na D-line) (dimensionless); conditions: 298.15 K; 101.33 kPa; Liquid; Standard Abbe refractometry

O=C=O [carbon dioxide]
vapor or sublimation pressure ([1]; 272.78 K): 3476 ± 11 kPa | vapor or sublimation pressure ([1]; 277.83 K): 3958 ± 12 kPa | vapor or sublimation pressure ([1]; 282.87 K): 4487 ± 13 kPa | vapor or sublimation pressure ([1]; 287.92 K): 5069 ± 13 kPa | vapor or sublimation pressure ([1]; 292.95 K): 5705 ± 14 kPa | vapor or sublimation pressure ([1]; 297.99 K): 6404 ± 16 kPa | vapor or sublimation pressure ([1]; 303.03 K): 7176 ± 17 kPa

CCCCCC [hexane]
refractive index [2]: 1.3724 ± 0.0004 | mass density ([1]; 298.15 K, 101.33 kPa, Vibrating tube method): 655.241 ± 0.26 kg/m3

FC(F)F [trifluoromethane]
vapor or sublimation pressure ([1]; 267.81 K): 2176 ± 9 kPa | vapor or sublimation pressure ([1]; 272.86 K): 2497 ± 9 kPa | vapor or sublimation pressure ([1]; 277.9 K): 2881 ± 10 kPa | vapor or sublimation pressure ([1]; 282.96 K): 3269 ± 10 kPa | vapor or sublimation pressure ([1]; 287.99 K): 3707 ± 11 kPa | vapor or sublimation pressure ([1]; 292.02 K): 4084 ± 11 kPa | vapor or sublimation pressure ([1]; 293.04 K): 4180 ± 12 kPa | vapor or sublimation pressure ([1]; 297.07 K): 4605 ± 12 kPa
